According to BindingDB's records for doi:10.7270/Q22J699S (Nmmlsc, 2010):

Molecular target: Guanine nucleotide-binding protein G(o) subunit alpha (Homo sapiens, UniProt P09471)
Assay: modulators of RGS8 binding to Galphao – biochemical, multiplexed bead assay, additional SAR round, SAR follow-up (AID 2827)

Sequence of Guanine nucleotide-binding protein G(o) subunit alpha (P09471 whole entry): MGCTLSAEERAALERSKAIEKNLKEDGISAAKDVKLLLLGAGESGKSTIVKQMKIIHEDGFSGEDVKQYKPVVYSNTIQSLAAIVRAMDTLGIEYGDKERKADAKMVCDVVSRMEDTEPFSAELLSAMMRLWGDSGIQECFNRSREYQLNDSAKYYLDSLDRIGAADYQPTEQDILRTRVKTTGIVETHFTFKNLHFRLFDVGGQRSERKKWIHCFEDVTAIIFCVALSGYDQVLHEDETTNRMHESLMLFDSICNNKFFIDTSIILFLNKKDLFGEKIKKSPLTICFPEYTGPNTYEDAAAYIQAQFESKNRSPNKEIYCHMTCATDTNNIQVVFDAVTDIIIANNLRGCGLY

For O=C(c1sc2cc([N+](=O)[O-])ccc2c1Cl)N1CCNCC1, which EC50 is on record?
The EC50 was over 30 µM.

Which EC50 does the source give for O=C(NCCCN1CCOCC1)c1sc2cc([N+](=O)[O-])ccc2c1Cl [3-chloranyl-N-(3-morpholin-4-ylpropyl)-6-nitro-1-benzothiophene-2-carboxamide] here?
Its EC50 is over 30 µM.

How did the EC50 turn out when Cc1ccc2c(Cl)c(C(=O)NCCCN3CCOCC3)sc2c1 [KUC103874N] was run?
Its EC50 is over 30 µM.

With NC(=O)c1sc2cc([N+](=O)[O-])ccc2c1Cl [KSC-1-100] as the compound, how does the EC50 read?
Its EC50 is over 30 µM.

How did the EC50 turn out when O=C(NCCCn1ccnc1)c1sc2cc([N+](=O)[O-])ccc2c1Cl [3-chloro-N-[3-(1-imidazolyl)propyl]-6-nitro-1-benzothiophene-2-carboxamide] was run?
The EC50 was over 30 µM.
